Measurements reported in patent US6562828B1, “Amidine compounds” (Japan Tobacco Inc., priority 1998, dated 2003).
Counter-ions that a name gives are not always drawn.

Target: T1, Human FXa (Homo sapiens, UniProt P00742)
T1 construct: Human FXa [Enzyme research Laboratories (USA)] enzyme; purchased Enzyme Research Laboratories (USA)
Assay: Determination of anti-factor Xa (FXa) activity, synthetic substrate S-2222
Assay type: biochemical
Conditions: S-2222, 37° C., pH 8.4, read-out: Experimental Example 1: anti-FXa activity, IC50
Experimental: Determination of Anti-factor Xa (FXa) Activity
Human FXa [Enzyme research Laboratories (USA)] enzyme (40 μl, 0.16U/ml) and test compounds (40 l) adjusted to various concentrations were incubated in 0.1M Tris (Tris-hydroxymethyl-aminomethane) buffer (pH 8.4) containing 0.2M sodium chloride (herein to be referred to as 0.1 M tris-0.2M NaCl buffer) (40 μl) at 37° C. for 10 min. A synthetic substrate S-2222 (Daiichi Pure Chemical (Tokyo, Japan), 40 μl) adjusted to 0.8 mM was added and the mixture was incubated at 37° C. for 10 min. The reaction was stopped by addition of 60% acetic acid (40 μl) and absorbance at 405 nm was measured by Model 3550 (BIO-RAD). For the control, the solvent was used instead of the test compound.

T1 sequence (P00742 235-488 limits assumed): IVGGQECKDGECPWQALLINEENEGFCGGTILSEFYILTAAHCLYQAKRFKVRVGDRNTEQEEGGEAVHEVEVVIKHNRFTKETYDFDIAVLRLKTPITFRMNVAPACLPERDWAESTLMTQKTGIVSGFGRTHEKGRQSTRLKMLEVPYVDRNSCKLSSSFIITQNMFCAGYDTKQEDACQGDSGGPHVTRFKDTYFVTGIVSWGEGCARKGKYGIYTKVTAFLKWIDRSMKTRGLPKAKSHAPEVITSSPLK
T1 sequence (P00742 41-179 partner limits assumed): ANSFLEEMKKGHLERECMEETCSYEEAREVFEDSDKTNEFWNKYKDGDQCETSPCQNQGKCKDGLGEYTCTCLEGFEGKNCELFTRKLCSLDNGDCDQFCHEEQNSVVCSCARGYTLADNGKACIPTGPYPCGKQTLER

SMILES: CC(=N)N1CCC(Oc2ccc(N(Cc3nc4cc(C(=N)N)ccc4n3CC(=O)N[C@@H](C)c3ccccc3)C(=O)c3ccc(C(=O)O)cc3)cc2)CC1 [Example 17, (S)-4-[N-[5-Amidino-1-(1-phenylethylcarbamoylmethyl)benzimidazole-2-ylmethyl]-N-[4-(1-acetimidoylpiperidin-4-yloxy)phenyl]carbamoyl]benzoic Acid Dihydrochloride]
- IC50: 3 nM
